Key:
Experiment in all cases: relative viability (nuclei count vs DMSO), 5 days (fraction); higher = more cells survive
[1] = system: NCI-H1915
Outline: (§1)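 Lung cancer cell lines in 1536-well plates were dosed by pin tool the day after seeding, either with one drug alone or with a fixed anchor-drug dose plus five library-drug doses (not always all listed) in √10 steps. After 5 days, cells were fixed and their nuclei stained in one step (final 0.05% Triton X-100, 1% formaldehyde, 1 ug/ml Hoechst), then counted on 4× images. Relative viability is the nuclei count in treated wells divided by that in vehicle wells. Values are medians of duplicate plates.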

[2] = system: LCLC-103H
Outline: as §1

[3] = system: LXF-289
Outline: as §1

[4] = system: A-427
Outline: as §1

[5] = system: NCI-H1651
Outline: as §1

[6] = system: NCI-H596
Outline: as §1

[7] = system: EKVX
Outline: as §1

[8] = system: NCI-H2347
Outline: as §1

[9] = system: COR-L23
Outline: as §1

[10] = system: HCC-44
Outline: as §1

[11] = system: NCI-H358
Outline: as §1

[12] = system: 201T
Outline: as §1

[13] = system: EPLC-272H
Outline: as §1

[14] = system: NCI-H1793
Outline: as §1

[15] = system: NCI-H460
Outline: as §1

[16] = system: NCI-H1650
Outline: as §1

[17] = system: LK-2
Outline: as §1

[18] = system: NCI-H2087
Outline: as §1

[19] = system: EMC-BAC-2
Outline: as §1

[20] = system: NCI-H2126
Outline: as §1

[21] = system: SW 1573
Outline: as §1

[22] = system: HCC-827
Outline: as §1

[23] = system: BEN
Outline: as §1

With `O=c1[nH]c2ccccc2n1C1CCN(CCCC(c2ccc(F)cc2)c2ccc(F)cc2)CC1` [Pimozide] + Nc1ncn([C@H]2C[C@H](O)[C@@H](CO)O2)c(=O)n1 [Decitabine] (partner 2 µM) the relative viability ([1]; first compound 0.08 µM) was 0.267, the relative viability ([1]; first compound 0.253 µM) was 0.248 and the relative viability ([1]; first compound 2.53 µM) was 0.262. It also gave a relative viability ([1]; first compound 8 µM) of 0.262, a relative viability ([2]; first compound 0.08 µM) of 0.765 and a relative viability ([2]; first compound 0.253 µM) of 0.712. For the same compound, the relative viability ([2]; first compound 0.8 µM) was 0.674, the relative viability ([2]; first compound 2.53 µM) was 0.691 and the relative viability ([2]; first compound 8 µM) was 0.707. For the same compound, the relative viability ([3]; first compound 0.08 µM) was 0.378, the relative viability ([3]; first compound 0.253 µM) was 0.4 and the relative viability ([3]; first compound 0.8 µM) was 0.324. It also gave a relative viability ([3]; first compound 2.53 µM) of 0.357, a relative viability ([3]; first compound 8 µM) of 0.39 and a relative viability ([4]; first compound 0.08 µM) of 0.527. It also gave a relative viability ([4]; first compound 0.253 µM) of 0.583, a relative viability ([4]; first compound 0.8 µM) of 0.606 and a relative viability ([4]; first compound 2.53 µM) of 0.479. For the same compound, the relative viability ([4]; first compound 8 µM) was 0.57, the relative viability ([5]; first compound 0.08 µM) was 0.597 and the relative viability ([5]; first compound 0.253 µM) was 0.507. It also gave a relative viability ([5]; first compound 0.8 µM) of 0.719, a relative viability ([5]; first compound 2.53 µM) of 0.588 and a relative viability ([5]; first compound 8 µM) of 0.611. It also gave a relative viability ([6]; first compound 0.08 µM) of 0.97, a relative viability ([6]; first compound 0.253 µM) of 0.931 and a relative viability ([6]; first compound 0.8 µM) of 0.986. The relative viability ([6]; first compound 2.53 µM) was 0.85, the relative viability ([6]; first compound 8 µM) was 1.08 and the relative viability ([7]; first compound 0.253 µM) was 0.333. The relative viability ([7]; first compound 0.8 µM) was 0.341, the relative viability ([7]; first compound 2.53 µM) was 0.349 and the relative viability ([7]; first compound 8 µM) was 0.364. It also gave a relative viability ([8]; first compound 0.08 µM) of 0.651, a relative viability ([8]; first compound 0.253 µM) of 0.589 and a relative viability ([8]; first compound 0.8 µM) of 0.574. For the same compound, the relative viability ([8]; first compound 2.53 µM) was 0.594, the relative viability ([8]; first compound 8 µM) was 0.559 and the relative viability ([9]; first compound 0.08 µM) was 0.409. The relative viability ([9]; first compound 0.253 µM) was 0.446, the relative viability ([9]; first compound 0.8 µM) was 0.411 and the relative viability ([9]; first compound 2.53 µM) was 0.424. For the same compound, the relative viability ([9]; first compound 8 µM) was 0.495, the relative viability ([10]; first compound 0.08 µM) was 1.01 and the relative viability ([10]; first compound 0.253 µM) was 0.983. For the same compound, the relative viability ([10]; first compound 0.8 µM) was 0.843, the relative viability ([10]; first compound 2.53 µM) was 0.935 and the relative viability ([10]; first compound 8 µM) was 0.919. The relative viability ([11]; first compound 0.08 µM) was 0.196, the relative viability ([11]; first compound 0.253 µM) was 0.219 and the relative viability ([11]; first compound 0.8 µM) was 0.315. For the same compound, the relative viability ([11]; first compound 2.53 µM) was 0.213, the relative viability ([11]; first compound 8 µM) was 0.228 and the relative viability ([12]; first compound 0.08 µM) was 0.827. It also gave a relative viability ([12]; first compound 0.253 µM) of 0.846, a relative viability ([12]; first compound 0.8 µM) of 0.829 and a relative viability ([12]; first compound 2.53 µM) of 0.844. The relative viability ([12]; first compound 8 µM) was 0.711, the relative viability ([13]; first compound 0.08 µM) was 0.309 and the relative viability ([13]; first compound 0.253 µM) was 0.362. For the same compound, the relative viability ([13]; first compound 0.8 µM) was 0.33, the relative viability ([13]; first compound 2.53 µM) was 0.32 and the relative viability ([13]; first compound 8 µM) was 0.318. The relative viability ([14]; first compound 0.08 µM) was 0.501, the relative viability ([14]; first compound 0.253 µM) was 0.489 and the relative viability ([14]; first compound 0.8 µM) was 0.516. The relative viability ([14]; first compound 2.53 µM) was 0.556, the relative viability ([14]; first compound 8 µM) was 0.58 and the relative viability ([15]; first compound 0.08 µM) was 0.553. For the same compound, the relative viability ([15]; first compound 0.253 µM) was 0.494, the relative viability ([15]; first compound 0.8 µM) was 0.462 and the relative viability ([15]; first compound 2.53 µM) was 0.521. For the same compound, the relative viability ([15]; first compound 8 µM) was 0.45, the relative viability ([16]; first compound 0.08 µM) was 0.287 and the relative viability ([16]; first compound 0.253 µM) was 0.485. It also gave a relative viability ([16]; first compound 0.8 µM) of 0.315, a relative viability ([16]; first compound 2.53 µM) of 0.404 and a relative viability ([16]; first compound 8 µM) of 0.405. For the same compound, the relative viability ([17]; first compound 0.08 µM) was 0.25, the relative viability ([17]; first compound 0.253 µM) was 0.289 and the relative viability ([17]; first compound 0.8 µM) was 0.28. For the same compound, the relative viability ([17]; first compound 2.53 µM) was 0.296, the relative viability ([17]; first compound 8 µM) was 0.33 and the relative viability ([18]; first compound 0.08 µM) was 0.277. The relative viability ([18]; first compound 0.253 µM) was 0.328, the relative viability ([18]; first compound 2.53 µM) was 0.342 and the relative viability ([18]; first compound 8 µM) was 0.275. It also gave a relative viability ([19]; first compound 0.08 µM) of 0.956, a relative viability ([19]; first compound 0.253 µM) of 0.918 and a relative viability ([19]; first compound 0.8 µM) of 0.911. It also gave a relative viability ([19]; first compound 2.53 µM) of 0.953, a relative viability ([19]; first compound 8 µM) of 0.983 and a relative viability ([20]; first compound 0.08 µM) of 0.613. The relative viability ([20]; first compound 0.253 µM) was 0.576, the relative viability ([20]; first compound 0.8 µM) was 0.549 and the relative viability ([20]; first compound 2.53 µM) was 0.557. For the same compound, the relative viability ([20]; first compound 8 µM) was 0.62, the relative viability ([21]; first compound 0.08 µM) was 0.555 and the relative viability ([21]; first compound 0.253 µM) was 0.52. It also gave a relative viability ([21]; first compound 0.8 µM) of 0.499, a relative viability ([21]; first compound 2.53 µM) of 0.371 and a relative viability ([21]; first compound 8 µM) of 0.384. For the same compound, the relative viability ([22]; first compound 0.253 µM) was 0.284, the relative viability ([22]; first compound 0.8 µM) was 0.348 and the relative viability ([22]; first compound 2.53 µM) was 0.334. The relative viability ([22]; first compound 8 µM) was 0.32, the relative viability ([23]; first compound 0.08 µM) was 0.805 and the relative viability ([23]; first compound 0.253 µM) was 0.71. It also gave a relative viability ([23]; first compound 0.8 µM) of 0.757, a relative viability ([23]; first compound 2.53 µM) of 0.62 and a relative viability ([23]; first compound 8 µM) of 0.767.

From the supplement of paper PMC10307832
